In ChEMBL document CHEMBL1124890 (J Med Chem, 1990) one finds Ki data, which are given here for nine compounds.

Numbered stars: 1 amine (or outer) side, 2 acyl side, 3 side chain; on linkers, the order of the positions; unused ones are H or OH. Square brackets hold non-standard residues; d marks the D form. Peptide text beside a SMILES is read from it. X6 = CN(C)C[C@H]1C=NN([*:1])[C@H](C(=O)[*:2])C1; X5 = O=C1CC[C@@H](C(=O)[*:2])N([*:1])N1; dPiz(1,6-dehydro) = O=C(O)[C@H]1CCC=NN1; X2 = CN1CCC[C@@H](C(=O)[*:2])N1[*:1]; X1 = CN1CCC[C@H](C(=O)[*:2])N1[*:1]; X7 = O=C([C@@H]1C=CC=NN1[*:1])[*:2]; X4 = O=C([C@@H]1CCCNN1[*:1])[*:2]; X3 = O=C([C@H]1CCCNN1[*:1])[*:2]; dNMeF = CN[C@H](Cc1ccccc1)C(=O)O

One experiment deals with T1, Oxytocin receptor (Rattus norvegicus, UniProt P70536).
T1 sequence (P70536 whole entry): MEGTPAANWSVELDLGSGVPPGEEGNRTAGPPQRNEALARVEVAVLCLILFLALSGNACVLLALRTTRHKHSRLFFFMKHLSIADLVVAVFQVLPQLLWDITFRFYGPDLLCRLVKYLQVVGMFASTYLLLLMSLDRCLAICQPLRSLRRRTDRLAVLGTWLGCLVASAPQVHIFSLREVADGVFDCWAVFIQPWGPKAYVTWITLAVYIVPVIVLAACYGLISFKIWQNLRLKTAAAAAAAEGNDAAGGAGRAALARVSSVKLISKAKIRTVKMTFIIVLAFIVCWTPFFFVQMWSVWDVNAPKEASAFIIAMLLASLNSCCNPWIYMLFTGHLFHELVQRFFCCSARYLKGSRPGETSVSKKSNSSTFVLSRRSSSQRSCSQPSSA
Briefly: Binding affinity against oxytocin receptor in rat uterus.

Another experiment has as its target Vasopressin V2 receptor (Rattus norvegicus, UniProt Q00788). Briefly: Binding affinity against Vasopressin receptor in rat kidney medulla.

Chain of Vasopressin V2 receptor (Q00788 whole entry): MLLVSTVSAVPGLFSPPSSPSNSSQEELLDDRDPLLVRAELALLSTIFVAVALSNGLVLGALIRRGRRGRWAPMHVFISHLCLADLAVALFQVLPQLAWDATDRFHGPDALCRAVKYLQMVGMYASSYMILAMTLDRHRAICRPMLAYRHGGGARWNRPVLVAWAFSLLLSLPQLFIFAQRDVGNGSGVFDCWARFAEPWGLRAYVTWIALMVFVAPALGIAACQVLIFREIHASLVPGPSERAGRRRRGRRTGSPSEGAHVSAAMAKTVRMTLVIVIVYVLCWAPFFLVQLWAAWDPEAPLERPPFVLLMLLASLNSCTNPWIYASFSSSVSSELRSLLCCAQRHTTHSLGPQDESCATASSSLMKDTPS

Consider `CC[C@H](C)[C@@H]1NC(=O)[C@@H](Cc2ccccc2)NC(=O)[C@@H]2CCCN2C(=O)[C@@H](Cc2ccccc2)N(C)C(=O)[C@@H]2C=CC=NN2C(=O)[C@H]2CCC=NN2C1=O` (cyclo(I[dPiz(1,6-dehydro)][X7][dNMeF]P[dF])), for which the results for the Ki on Oxytocin receptor and at Vasopressin V2 receptor were 8.1 nM and 580 nM, respectively.
The like results for `CC[C@H](C)[C@H]1C(=O)N2NCCC[C@@H]2C(=O)N2NCCC[C@H]2C(=O)N(C)[C@H](Cc2ccccc2)C(=O)N2CCC[C@H]2C(=O)N[C@H](Cc2ccccc2)C(=O)N1O` were, in that order, 150 nM and 3400 nM.
The like results for `CC[C@H](C)[C@@H]1NC(=O)[C@@H](Cc2ccccc2)NC(=O)[C@@H]2CCCN2C(=O)[C@@H](Cc2ccccc2)N(C)C(=O)[C@@H]2CCCN(C)N2C(=O)[C@H]2CCCN(C)N2C1=O` (cyclo(I[X1][X2][dNMeF]P[dF])) were, in that order, 2500 nM and 3100 nM.
The like results for `CC[C@H](C)[C@@H]1NC(=O)[C@@H](Cc2ccccc2)NC(=O)[C@@H]2CCCN2C(=O)[C@@H](Cc2ccccc2)N(C)C(=O)[C@@H]2CCC(=O)NN2C(=O)[C@H]2CCCNN2C1=O` (cyclo(I[X3][X5][dNMeF]P[dF])) were, in that order, 89 nM and 7800 nM.
Consider `CC[C@@H](C)[C@@H]1/N=C(\S)[C@@H](Cc2ccccc2)NC(=O)[C@@H]2CCCN2C(=O)[C@@H](Cc2ccccc2)N(C)C(=O)[C@@H]2CCC=NN2C(=O)[C@H]2CCC=NN2C1=O`, for which the Ki at Oxytocin receptor is 1.1 nM; on Vasopressin V2 receptor, 70 nM.
The like results for `CC[C@H](C)[C@@H]1NC(=O)[C@@H](Cc2ccccc2)NC(=O)[C@@H]2CCCN2C(=O)[C@@H](Cc2ccccc2)N(C)C(=O)[C@@H]2C[C@@H](CN(C)C)C=NN2C(=O)[C@H]2CCC=NN2C1=O` (cyclo(I[dPiz(1,6-dehydro)][X6][dNMeF]P[dF])) were, in that order, 3.4 nM and 1100 nM.
On to `CC[C@H](C)[C@@H]1NC(=O)[C@@H](Cc2ccccc2)NC(=O)[C@@H]2CCCN2C(=O)[C@@H](Cc2ccccc2)N(C)C(=O)[C@@H]2CCCNN2C(=O)[C@H]2CCCNN2C1=O` (cyclo([X3][X4][dNMeF]P[dF]I)), for which the figures for the Ki at Oxytocin receptor and at Vasopressin V2 receptor were 30 nM and 1500 nM, respectively.
The like results for `CC[C@H](C)[C@@H]1NC(=O)[C@@H](Cc2ccccc2)NC(=O)[C@@H]2CCCN2C(=O)[C@@H](Cc2ccccc2)N(C)C(=O)[C@@H]2CCC(=O)NN2C(=O)[C@H]2CCC=NN2C1=O` (cyclo(I[dPiz(1,6-dehydro)][X5][dNMeF]P[dF])) were, in that order, 9.6 nM and 6800 nM.
The like results for `CC[C@H](C)[C@@H]1NC[C@@H](Cc2ccccc2)NC(=O)[C@@H]2CCCN2C(=O)[C@@H](Cc2ccccc2)N(C)C(=O)[C@@H]2CCC=NN2C(=O)[C@H]2CCC=NN2C1=O` were, in that order, more than 30000 nM and 30000 nM.

A word on the Ki: it is the dissociation constant of the complex between target and ligand, obtained from inhibition or displacement. The low end stands for a stronger hold on the target, the high end for a looser hold on the target.
